Measured values published in patent US11230548B2, “Prodrugs of fumarates and their use in treating various diseases” (Alkermes Pharma Ireland Limited, priority 2013, dated 2022).
Counter-ions that a name gives are not always drawn.

Experiment: Aqueous chemical stability in phosphate buffer (HPLC, first-order decay)
Format: physicochemical
Conditions: half-life of the compound in buffer phosphate (100 mM), pH 8, 37° C., half-lives >360 min estimated from initial slope at low conversion (<10%)
Method: Stock solutions of the compounds in acetonitrile or acetonitrile/methanol were prepared at 20 mg/mL. and 20 μL, spiked into 3 mL of buffer phosphate (100 mM) and incubated at 37° C. Aliquots (50 μL) were sampled at different time points and diluted 20 fold with ammonium formate (pH 3.5)/acetonitrile. The diluted samples were analyzed by HPLC. The peak areas corresponding to the compounds were plotted against time and the data were fitted to a first-order mono-exponential decay where the rate constant and the half-life were determined (Table 2).

Structure (SMILES) | pH 8 (t½, min) [min]
CCN(CC)C(=O)COC(=O)/C=C/C(=O)OC [Reference Compound A, 2-(diethylamino)-2-oxoethyl methyl fumarate, reference compound] | 120
COC(=O)/C=C/C(=O)OCCN(C)c1ccccc1 [Compound 12, Methyl (2-(methyl(phenyl)amino)ethyl) fumarate hydrochloride] | 396
COC(=O)/C=C/C(=O)OCCNc1ccccc1 [Compound 8, Methyl (2-(phenylamino)ethyl) fumarate hydrochloride] | 36.0
COC(=O)/C=C/C(=O)OCC(C)(C)N(C)C [Compound 9, 2-(dimethylamino)-2-methylpropyl methyl fumarate hydrochloride] | 7.0
COC(=O)/C=C/C(=O)OCCN1CCSCC1 [Compound 7, Methyl (2-thiomorpholinoethyl) fumarate hydrochloride] | 26.0
COC(=O)/C=C/C(=O)OC(C)CN(C)C (stereo not drawn) [Compound 6, 1-(dimethylamino)propan-2-yl methyl fumarate hydrochloride] | 2.0

Results, then the compound that gave them:

pH 8 (t½, min) [min] | Structure (SMILES)
67.0 | COC(=O)/C=C/C(=O)OCCS(C)(=O)=O [Compound 10, Methyl (2-(methyl sulfonyl)ethyl) fumarate]
5.0 | CCN(CC)CCOC(=O)/C=C/C(=O)OC [Compound 20, 2-(diethylamino)ethyl methyl fumarate hydrochloride]
>240 | COC(=O)/C=C/C(=O)OCCN1CCS(=O)(=O)CC1 [Compound 11, 2-(1,1-dioxidothiomorpholino)ethyl methyl fumarate hydrochloride]
144 | COC(=O)/C=C/C(=O)OCCN1C(=O)CCC1=O [Compound 14, 2-(2,5-dioxopyrrolidin-1-yl)ethyl methyl fumarate]
5.0 | COC(=O)/C=C/C(=O)OCCN1CCCC1 [Compound 18, Methyl (2-(pyrrolidin-1-yl)ethyl) fumarate hydrochloride]
6.0 | COC(=O)/C=C/C(=O)OCCN(C)C [Compound 19, 2-(dimethylamino)ethyl methyl fumarate hydrochloride]
11.0 | COC(=O)/C=C/C(=O)OCCN1CCC2(CC1)OCCO2 [Compound 17, 2-(1,4-dioxa-8-azaspiro[4.5]decan-8-yl)ethyl methyl fumarate hydrochloride]
20.0 | COC(=O)/C=C/C(=O)OCCN1CCOCC1 [Compound 16, Methyl (2-morpholinoethyl) fumarate hydrochloride]
3.0 | COC(=O)/C=C/C(=O)OCCN1CCCCC1 [Compound 15, Methyl (2-(piperidin-1-yl)ethyl) fumarate hydrochloride]
